The values that follow come from US20090291939A1, “Treating Alcohol And Or Substance Abuse By Antagonizing Alpha 2 Adrenergic Receptors With Weak Dopamine Blocking” (priority 2002, published 2009).

“Also recorded” adds a separate entry of the source. Some results are limits rather than exact numbers.

The subject of one data set is animals. The settings on record: cited from earlier work.
For the next data set, the system named is golden hamster. The settings on record: cited from earlier work.
Another data set relates to Syrian golden hamsters. Put plainly: Free choice alcohol drinking in Syrian golden hamsters with daily s.c. drug treatment. The settings on record: for body weight, change from baseline: 9-day treatment period; for alcohol consumption during post-hoc period: post-hoc: CLOZ animals 2 days lower dose then 22 days vehicle, HAL animals 0.6, 0.8, then 1 mg/kg over 15 days.

`CN[C@H]1CC[C@@H](c2ccc(Cl)c(Cl)c2)c2ccccc21` [sertraline]: the alcohol consumption entry in the data set with animals was “inhibit alcohol consumption”.
With `O=c1c(-c2ccc(O)cc2)coc2cc(O[C@@H]3O[C@H](CO)[C@@H](O)[C@H](O)[C@H]3O)ccc12` [Daidzin], the alcohol drinking entry with golden hamster is recorded as “decreases alcohol drinking”.
As to `CN1CCN(C2=Nc3cc(Cl)ccc3Nc3ccccc32)CC1` [CLOZ, clozapine], the “body weight, change from baseline” value with Syrian golden hamsters is listed as “lost weight”. Further, the “time to onset of decrease in alcohol drinking after first injection” value in the data set on Syrian golden hamsters (first CLOZ injection 2 mg/kg s.c., treatment day #2) is no more than 27 h. In addition, the “alcohol consumption, % of baseline” value in the data set with Syrian golden hamsters (treatment period, by day #6, after four days of 4 mg/kg/day CLOZ s.c.) is 10 % of baseline.
`C=CCN1CC[C@]23c4c5ccc(O)c4O[C@H]2C(=O)CC[C@@]3(O)[C@H]1C5` [naloxone]: the alcohol consumption result with animals was “inhibit alcohol consumption”.
For the compound `O=C1CC[C@@]2(O)[C@H]3Cc4ccc(O)c5c4[C@@]2(CCN3CC2CC2)[C@H]1O5` [naltrexone], the alcohol consumption result with animals is reported as “inhibit alcohol consumption”.
On to `O=C(CCCN1CCC(O)(c2ccc(Cl)cc2)CC1)c1ccc(F)cc1` [HAL, haloperidol], for which, in the data set with Syrian golden hamsters, the “body weight, change from baseline” value is “stayed the same” and the “alcohol consumption during post-hoc period” value is “did not change; also recorded: no change in alcohol drinking”. Besides, the “alcohol drinking, change during treatment period” value with Syrian golden hamsters (9-day treatment: CLOZ 2 then 4 mg/kg, HAL 0.2 then 0.4 mg/kg, s.c. daily) is given as “unchanged”. Moreover, in the data set on Syrian golden hamsters (HAL dose ranging from 0.2 mg/kg to 1 mg/kg, including 11 days at highest dose), the “alcohol use over full 24 days of treatment” value is reported as “no evidence of a decrease in alcohol use”. For the same compound, the “alcohol consumption during post-hoc period” value in the data set with Syrian golden hamsters (listed as haloperidol) is recorded as “no decrease in drinking”.
